Each structure is given as a SMILES string.

This experiment concerns the target MCH receptor (SLC-1) (UniProt Q99705). Nature of the experiment: MCH receptor antagonistic activity using GTPγS binding assay. Type of experiment: biochemical, human. Particulars: [35S]-GTPγS binding, membrane fractions of SLC-1 expression CHO cells, 3×10^−10 M MCH, 25° C. 1 hr; read-out: Inhibitory Activity (IC50 value: nM). Here is the method: Using human SLC-1 expression CHO cell clone 57 and rat SLC-1 expression CHO cell clone 44 described in WO01/82925, membrane fractions of SLC-1 expression CHO cells were prepared by the following method. In phosphate buffered saline (pH 7.4) supplemented with 5 mM EDTA (ethylenediaminetetraacetic acid) were suspended human and rat SLC-1 expression CHO cells (1×10^8) and centrifuged. Homogenate buffer (10 ml, 10 mM […], 5 mM EDTA, pH 7.5) was added to the pellets of the cells and, using Polytron Homogenizer, the mixture was homogenated. The supernatant obtained after centrifugation at 400×g for 15 min was further centrifuged at 100,000×g for 1 hr to give precipitate of the membrane fraction. The precipitate was suspended in 2 ml of an assay buffer [50 mM Tris-HCl (pH 7.5), 1 mM EDTA, 0.1% BSA (bovine serum albumin), 10 mM MgCl2, 100 mM NaCl, 1 μM GDP (guanosine 5′-diphosphate), 0.25 mM PMSF (phenylmethylsulfonyl fluoride), […]] and centrifuged at 100,000×g for 1 hr. The membrane fraction recovered as precipitate was suspended again in 20 ml of an assay buffer, and after dispensing, preserved at −80° C. and used upon thawing each time when in use.
The MCH receptor antagonistic activity of the test compound was determined as follows. The membrane fractions of SLC-1 expression CHO cells (171 μl) diluted with an assay buffer was dispensed to a polypropylene 96 well plate and 3×10^−10 M MCH (2 μl) diluted with DMSO solution, test compound solution (2 μl) diluted to various concentrations and [^35S]-Guanosine 5′-(γ-thio)triphosphate (25 μl, Daiichi Pure Chemicals Co., Ltd.) were respectively added (cellular membrane final concentration: 20 μg/ml, [^35S]-Guanosine 5′-(γ-thio)triphosphate final concentration: 0.33 nM). The reaction mixture was reacted at 25° C. for 1 hr with stirring, suction filtered with a glass filter (GF-C) and washed 3 times with a wash solution (300 μl, 50 mM Tris-HCl buffer, pH 7.5). Liquid scintillator ([…]) was added to the glass filter and the residual radioactivity was determined by a liquid scintillation counter.
Binding inhibition (%)=(radioactivity upon addition of test compound and MCH−radioactivity upon addition of DMSO solution)/(radioactivity upon addition of MCH−radioactivity upon addition of DMSO solution)×100
From the binding inhibition (%), IC50 of the test compound was calculated.
In general terms: GTPγS is a poorly hydrolysed GTP analogue; its binding reports G protein activation.
In general, IC50 refers to the concentration that gives 50% inhibition. `Cc1c(NC(=O)c2ccc(OCC3CC3)cc2)ccc2cc(C(C)NCCCS(C)(=O)=O)cnc12` (centres unmarked) [Ex. 3, 4-(cyclopropylmethoxy)-N-[8-methyl-3-(1-{[3-(methylsulfonyl)propyl]amino}ethyl)quinolin-7-yl]benzamide]: the 50% inhibitory concentration (IC50) is 2.2 nM.
As for `Cc1c(NC(=O)c2ccc(C#CC3CC3)cc2)ccc2cc(CNC3CCN(S(C)(=O)=O)CC3)cnc12` [Ex. 42, 4-(cyclopropylethynyl)-N-[8-methyl-3-({[1-(methylsulfonyl)piperidin-4-yl]amino}methyl)quinolin-7-yl]benzamide], the IC50 was determined as 2.3 nM.
`Cc1c(NC(=O)c2ccc(OCC3CC3)cc2)ccc2cc([C@@H](C)NC3CC[S+]([O-])CC3)cnc12` (stereo partly drawn) [Ex. 30, 4-(cyclopropylmethoxy)-N-(8-methyl-3-{(1R)-1-[cis-(1-oxidotetrahydro-2H-thiopyran-4-yl)amino]ethyl}quinolin-7-yl)benzamide]: the 50% inhibitory concentration (IC50) is 3.9 nM.
As to `Cc1c(NC(=O)c2ccc(OCCC3CC3)cc2F)ccc2cc(CNC3CC[S+]([O-])CC3)cnc12` (stereo not drawn) [Ex. 25, 4-(2-cyclopropylethoxy)-2-fluoro-N-(8-methyl-3-{[cis-1-oxidotetrahydro-2H-thiopyran-4-yl)amino]methyl}quinolin-7-yl)benzamide], the IC50 amounted to 1.2 nM.
`Cc1c(NC(=O)c2ccc(OCCC3CC3)cc2)ccc2cc(CNC3CC[S+]([O-])CC3)cnc12` (stereo not drawn) [Ex. 22, 4-(2-cyclopropylethoxy)-N-(8-methyl-3-{[(cis-1-oxidotetrahydro-2H-thiopyran-4-yl)amino]methyl}quinolin-7-yl)benzamide]: the IC50 is 1.8 nM.
In the case of `Cc1c(NC(=O)c2ccc(/C=C/C3CC3)cc2)ccc2cc(CNC3CCS(=O)(=O)CC3)cnc12` [Ex. 45, 4-[(E)-2-cyclopropylvinyl]-N-(3-{[(1,1-dioxidotetrahydro-2H-thiopyran-4-yl)amino]methyl}-8-methylquinolin-7-yl)benzamide], the half-inhibitory concentration (IC50) is 4.9 nM.
The result for `Cc1c(NC(=O)c2ccc(OCCC3CC3)cc2F)ccc2cc(CNC3CC[S+]([O-])CC3)cnc12` (stereo not drawn) [Ex. 24, 4-(2-cyclopropylethoxy)-2-fluoro-N-(8-methyl-3-{[(trans-1-oxidotetrahydro-2H-thiopyran-4-yl)amino]methyl}quinolin-7-yl)benzamide] reads 1.5 nM.
The figure for `Cc1c(NC(=O)c2ccc(OCC3CC3)cc2)ccc2cc(CNC3CCN(S(C)(=O)=O)CC3)cnc12` [Ex. 8, 4-(cyclopropylmethoxy)-N-[8-methyl-3-({[1-(methylsulfonyl)piperidin-4-yl]amino}methyl)quinolin-7-yl]benzamide] is 3.9 nM.

For the origin of these results see patent US20110015225A1, “Heterocyclic compound” (Takeda Pharmaceutical Company Limited, priority 2008, published 2011).
